Reference: PubChem BioAssay (NCI)
Several values for one entry are separate records, joined by “and”; a condition that tells them apart may be missing. Identical values can stand only once.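 How tested: cells in 96-well plates exposed to compound for 48 hours at five concentrations. GI50 = concentration required for 50% inhibition of growth. Definition used: TGI = concentration required for complete inhibition of growth.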

Assays:
Experiment in all cases: growth of human tumour cells (NCI), 48 h
[1] = system: HCT-15 colon
[2] = system: OVCAR-5 ovarian
[3] = system: LOX IMVI melanoma
[4] = system: U251 CNS
[5] = system: BT-549 breast
[6] = system: ACHN renal
[7] = system: HT29 colon
[8] = system: SF-268 CNS
[9] = system: SF-539 CNS
[10] = system: CAKI-1 renal

Row | Compound | TGI [1] | TGI [2] | TGI [3] [µM] | TGI [4] | TGI [5] [µM] | TGI [6] | TGI [7] [µM] | TGI [8] [µM] | TGI [9] | TGI [10] | GI50 [2] [µM] | GI50 [3] [µM] | GI50 [6] [µM] | GI50 [7] [µM] | GI50 [10] [nM] | GI50 [1] [µM] | GI50 [4] [µM] | GI50 [5] [µM] | GI50 [8] [µM] | GI50 [9] [nM]
1 | O=c1cc(N=Nc2ccc(O)cc2)[nH]c(=O)[nH]1 | > 100 µM | > 100 µM | > 100 | > 100 µM | > 100 | > 100 µM | > 100 | > 100 | > 100 µM | > 100 µM | – | – | – | – | – | – | – | – | – | –
2 | CC(C)(C#N)c1cc(C(=O)Nc2cc(Nc3ncccc3-c3ncnc4nc[nH]c34)ccc2F)cc(C(F)(F)F)c1 | > 2.22 µM | > 2.86 µM | 2.41 | > 10 µM | > 2.3 | > 3.41 µM | – | > 10 | – | > 3.55 µM | 0.224 | 0.38 | 1.2 | 0.132 | 1140 | – | – | – | – | –
3 | Nc1c(C(=O)Nc2ccccc2)sc2nc3c(cc12)CN(Cc1ccccc1)CC3 | > 100 µM | > 100 µM | > 100 | > 100 µM | 92.3 | > 100 µM | > 100 | > 100 | > 100 µM | > 100 µM | > 100 | 10.5 | 5.5 | 24.7 | 19700 | 24.7 | 13.9 | 16.8 | 5.62 | 2780
4 | O=C(CN(/C=C/C(=O)C(F)(F)F)c1ccccc1)c1ccc(Cl)c(Cl)c1 | 28.2 µM | 33.9 µM | 31.8 | 28.1 µM | 29.5 | 27.9 µM | > 100 | 40.7 | 39.8 µM | 23.4 µM | 17 | 16 | 14.7 | 34.1 | 8440 | 14.6 | 14.8 | 10.9 | 18.4 | 18000
5 | CC(C)c1ccc(Nc2nccc(-c3cnn4ncccc34)n2)cc1 | > 25 µM | > 12.3 µM | > 7.75 | > 9.71 µM | > 25 | > 10.3 µM | 3.24 | 4.42 | 1.68 µM | > 15.4 µM | 0.44 | 0.209 | 0.189 | 0.6 | 800 | 0.614 | 0.559 | 0.967 | 0.692 | 481
6 | COc1ccc2c(c1)C(C)Cc1c(Cl)nc(C)nc1N2C (stereo not drawn) | 8.05 µM | > 100 µM | 23.9 | 15.9 µM | 12.3 | > 100 µM | 8.92 | 18.6 | 6.11 µM | > 100 µM | 5.91 | 3.12 | 5.61 | 2.2 | 2560 | 1.33 | 3.15 | 2.22 | 2.6 | 1680
7 | CCCc1cc(=O)n2c(C(=O)Nc3ccccc3OC)c(C(=O)Nc3ccc(F)cc3)sc2n1 | > 160 µM | > 160 µM | 38.1 | 21.5 µM | 71.1 | 18.7 µM | > 160 | 38 | 38 µM | > 160 µM | 69.3 | 5.18 | 5.11 | 44.5 | 35300 | 72 | 5.88 | 31 | 14.3 | 16800
8 | CN(C)c1ccc(C(=C2C=CC(=[N+](C)C)C=C2)c2ccc(N(C)C)cc2)cc1 | 1.35 µM and 1.26 µM | 1.17 µM and 0.578 µM | – | 0.565 µM and 1.14 µM | 0.621 | 1.17 µM and 1.01 µM | 0.158 | – | 1.03 µM and 1.23 µM | 0.788 µM and 2.43 µM | 0.295 | – | 0.253 | 0.0363 | 249 | – | 0.0462 | 0.18 | – | 190
9 | COc1cc(C2C3=C(COC3=O)Nc3cc4c(cc32)CCC4)cc2c1OCO2 (stereo not drawn) | > 62.1 µM | 41.7 µM | 12.1 | 4.61 µM | 42.2 | 21.4 µM | 0.845 | 6.58 | 8.73 µM | 38.7 µM | 0.231 | 0.0496 | 0.114 | 0.0299 | 157 | 0.0728 | 0.0452 | 0.311 | 0.0558 | 32.8
10 | CSc1ccccc1C#Cc1ccccc1C#CCCCCO | 15.9 µM | 32.2 µM | 19.2 | 22.7 µM | 26.6 | 23.4 µM | 19.2 | 28.4 | 27.2 µM | 20.5 µM | 13.6 | 5.87 | 11.3 | 5.46 | 7130 | 3.85 | 10.8 | 13.3 | 13.7 | 13500
11 | COc1cc2c3c(n(C)c(=O)c2cc1OC)-c1cc2c(cc1/C3=C\C(N)CN)OCO2 (stereo not drawn) | 16.6 µM | > 30.9 µM | 3.12 | 2.42 µM | 4.52 | 2.82 µM | > 100 | 15 | 4.49 µM | 10.4 µM | 4.43 | 1.05 | 0.73 | 2.61 | 2270 | 2.16 | 0.371 | 0.72 | 0.692 | 1390
12 | Nc1ccc(-c2ccc(N)cc2I)c(I)c1 | 34.1 µM | 54.8 µM | 31.2 | 35.6 µM | 36.1 | 89.6 µM | 42.8 | > 100 | 32.2 µM | 42.9 µM | 17.5 | 16.3 | 22.6 | 20 | 14500 | 13.7 | 16.3 | 13.8 | 20 | 14500
13 | CCCCCCCOc1c(OC)cc(C2CC(=O)Nc3c2c(C)nn3-c2nc3ccccc3[nH]2)cc1OC (stereo not drawn) | > 100 µM | > 100 µM | 4.51 | > 100 µM | 47.5 | > 100 µM | > 100 | 6.68 | 3.11 µM | 4.25 µM | 4.39 | 2.12 | 3.21 | 4.06 | 1920 | 3.12 | 3.72 | 3.4 | 2.12 | 1660
14 | Cc1ccc2c(c1)C(=O)c1c-2n(CCCBr)c(=O)c2cc([N+](=O)[O-])ccc12 | > 100 µM | > 100 µM | > 100 | > 100 µM | > 100 | > 100 µM | > 100 | > 100 | > 100 µM | 32.6 µM | > 100 | 17.9 | 23.3 | 62.8 | 5280 | 97.8 | 24.8 | > 100 | 46.9 | > 100000
15 | COc1ccc(-c2nn(-c3cccc(Cl)c3)cc2-c2cc(-c3ccccc3)nc(N)n2)cc1 | 16.1 µM | 11 µM | – | 3.03 µM | 16.9 | 15.8 µM | 4.32 | 18.9 | 27.7 µM | 10.7 µM | 2.94 | – | 4.58 | 2.07 | 1770 | 3.6 | 1.59 | 4.31 | 3.76 | 11000
16 | N=C(N)c1ccc(COc2ccccc2OCc2ccc(C(=N)N)cc2)cc1 | > 100 µM | > 100 µM | – | 65.4 µM | 76.7 | > 100 µM | > 100 | 86 | 34.6 µM | 29.8 µM | > 100 | – | > 100 | 47 | 2110 | 75.6 | 25.6 | 34.8 | 31.8 | 14000
17 | Clc1nc(Cl)c(-c2ccccc2)c(Cl)n1 | 5.01 µM | 9.88 µM | 3.73 | 10 µM | 7.09 | – | 49.3 | > 29.9 | 10.9 µM | 3.33 µM | – | – | – | – | – | – | – | – | – | –
18 | CCOC(=O)c1nc(Nc2ccc(Cl)cc2)c2ccccc2n1 | > 50 µM | 22.3 µM | 18.6 | 18.5 µM | 25.5 | 19.2 µM | – | 25.1 | 20.9 µM | 16.3 µM | 10.7 | 9.92 | 9.3 | – | 7730 | 14.9 | 8.86 | 10.2 | 10.1 | 10600
19 | Cc1cn2c(/C=N/Nc3ccccn3)c(-c3ccc(Cl)c([N+](=O)[O-])c3)nc2s1 | > 50 µM | 39.5 µM | 16.5 | 15.4 µM | > 50 | 15.5 µM | – | 31.7 | 3.53 µM | > 50 µM | 11.8 | 8.03 | 6.89 | – | 39000 | 16 | 8.22 | 21.1 | 11.6 | 1120
20 | S=C(Nc1cc(Cl)c(Cl)cc1Cl)SCc1ccccc1 | 32.6 µM | 46.5 µM | – | 52.7 µM | 65.8 | 42.7 µM | 43.7 | > 100 | 48.3 µM | 44 µM | – | – | – | – | – | – | – | – | – | –
